Results: patent EP4559911A1, “NOVEL HETEROCYCLIC COMPOUND AND PHARMACEUTICAL COMPOSITION FOR INHIBITING AUTOTAXIN COMPRISING THE SAME” (Nextgen Bioscience Co., Ltd., priority 2022, dated 2024)

Molecular target: human Autotaxin protein (Homo sapiens, UniProt Q13822)
Experiment: Evaluation of the inhibitory activity against human Autotaxin protein (18:1 LysoPC substrate, choline assay kit, absorbance at 570 nm)
Assay type: biochemical
Conditions: compound at 500nM; 2 hours at 37 °C; % inhibition = (1 - absorbance test group / absorbance control group) X 100
How it was run: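 Human autotaxin (20 μL of 240 nM stock) was reacted with sonicated 18:1 LysoPC (10 μL of 360 μM stock) in Tris pH 8.0 buffer with BSA for 2 h at 37 °C, using 6 compound concentrations from 5-fold dilution. Released choline was detected via choline oxidase/dye probe (30 min), read as absorbance at 570 nm. % inhibition was calculated relative to control.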

inhibition at 0.5 µM [%]	SMILES
10.4	Cc1ncn(C2CN(c3nnc(-c4cnc(NC5Cc6cc(F)c(F)cc6C5)nc4)o3)C2)n1 [Example 80, N-(5,6-difluoro-2,3-dihydro-1H-inden-2-yl)-5-(5-(3-(3-methyl-1H-1,2,4-triazol-1-yl)azetidin-1-yl)-1,3,4-oxadiazol-2-yl)pyrimidin-2-amine]
7	Fc1cc2c(cc1F)CC(Nc1ncc(-c3nnc(N4CC(N5CCOCC5)C4)o3)cn1)C2 [Example 81, N-(5,6-difluoro-2,3-dihydro-1H-inden-2-yl)-5-(5-(3-morpholinoazetidin-1-yl)-1,3,4-oxadiazol-2-yl)pyrimidin-2-amine]
98	CC1(c2c[nH]nn2)CN(C(=O)/C=C/c2cnc(NC3Cc4ccccc4C3)nc2)C1 [Example 82, (E)-3-(2-((2,3-dihydro-1H-inden-2-yl)amino)pyrimidin-5-yl)-1-(3-methyl-3-(1H-1,2,3-triazol-4-yl)azetidin-1-yl)prop-2-en-1-one]
81.6	FC1(c2c[nH]nn2)CN(c2nnc(-c3cnc(NC4Cc5ccccc5C4)nc3)o2)C1 [Example 83, N-(2,3-dihydro-1H-inden-2-yl)-5-(5-(3-fluoro-3-(1H-1,2,3-triazol-4-yl)azetidin-1-yl)-1,3,4-oxadiazol-2-yl)pyrimidin-2-amine]
1.1	CC(C)(C)C(=O)OCn1cc(C2CN(c3nnc(-c4cnc(NC5Cc6ccncc6C5)nc4)o3)C2)nn1 (centres unmarked) [Example 84, (4-(1-(5-(2-((6,7-dihydro-5H-cyclopenta[c]pyridin-6-yl)amino)pyrimidin-5-yl)-1,3,4-oxadiazol-2-yl)azetidin-3-yl)-1H-1,2,3-triazol-1-yl)methyl pivalate]
19.8	c1cc2c(cn1)CC(Nc1ncc(-c3nnc(N4CC(c5c[nH]nn5)C4)o3)cn1)C2 (centres unmarked) [Example 85, N-(5-(5-(3-(1H-1,2,3-triazol-4-yl)azetidin-1-yl)-1,3,4-oxadiazol-2-yl)pyrimidin-2-yl)-6,7-dihydro-5H-cyclopenta[c]pyridin-6-amine]
2.8	CC(C)(C)C(=O)OCn1cc(C2CN(c3nnc(-c4cnc(NCc5ccc6c(c5)OCO6)nc4)o3)C2)nn1 [Example 86, (4-(1-(5-(2-((benzo[d][1,3]dioxol-5-ylmethyl)amino)pyrimidin-5-yl)-1,3,4-oxadiazol-2-yl)azetidin-3-yl)-1H-1,2,3-triazol-1-yl)methyl pivalate]
18	c1cc2c(cc1CNc1ncc(-c3nnc(N4CC(c5c[nH]nn5)C4)o3)cn1)OCO2 [Example 87, 5-(5-(3-(1H-1,2,3-triazol-4-yl)azetidin-1-yl)-1,3,4-oxadiazol-2-yl)-N-(benzo[d][1,3]dioxol-5-ylmethyl)pyrimidin-2-amine]
10.5	CN(c1ncc(-c2nnc(N3CC(c4c[nH]nn4)C3)o2)cn1)C1Cc2cc(F)c(F)cc2C1 [Example 88, 5-(5-(3-(1H-1,2,3-triazol-4-yl)azetidin-1-yl)-1,3,4-oxadiazol-2-yl)-N-(5,6-difluoro-2,3-dihydro-1H-inden-2-yl)-N-methylpyrimidin-2-amine]
84.9	FC1(c2c[nH]nn2)CN(c2nnc(-c3cnc(NC4Cc5ccc(Br)cc5C4)nc3)o2)C1 (centres unmarked) [Example 89, N-(5-bromo-2,3-dihydro-1H-inden-2-yl)-5-(5-(3-fluoro-3-(1H-1,2,3-triazol-4-yl)azetidin-1-yl)-1,3,4-oxadiazol-2-yl)pyrimidin-2-amine]
17.9	O=C(CCCc1nnc(NC2Cc3cc(F)c(F)cc3C2)o1)N1CC(c2c[nH]nn2)C1 [Example 90, 1-(3-(1H-1,2,3-triazol-4-yl)azetidin-1-yl)-4-(5-((5,6-difluoro-2,3-dihydro-1H-inden-2-yl)amino)-1,3,4-oxadiazol-2-yl)butan-1-one]
97.1	Clc1ccc2c(c1)CC(Nc1ncc(-c3nnc(N4CC(c5c[nH]nn5)C4)o3)cn1)C2 (centres unmarked) [Example 91, 5-(5-(3-(1H-1,2,3-triazol-4-yl)azetidin-1-yl)-1,3,4-oxadiazol-2-yl)-N-(5-chloro-2,3-dihydro-1H-inden-2-yl)pyrimidin-2-amine]
85.5	Clc1ccc(CCNc2ncc(-c3nnc(N4CCC(c5c[nH]nn5)C4)o3)cn2)cc1 (centres unmarked) [Example 92, 5-(5-(3-(1H-1,2,3-triazol-4-yl)pyrrolidin-1-yl)-1,3,4-oxadiazol-2-yl)-N-(4-chlorophenethyl)pyrimidin-2-amine]
89.3	Clc1ccc(CCNc2ncc(-c3nnc(N4CC(c5c[nH]nn5)C4)o3)cn2)cc1 [Example 93, 5-(5-(3-(1H-1,2,3-triazol-4-yl)azetidin-1-yl)-1,3,4-oxadiazol-2-yl)-N-(4-chlorophenethyl)pyrimidin-2-amine]
